Measured values from ChEMBL document CHEMBL1795343, “SAR of 2-amino and 2,4-diamino pyrimidines with in vivo efficacy against Trypanosoma brucei” (Bioorg Med Chem Lett, 2011).
Converted amounts (≈) assume the structure as drawn.

How the values were obtained:
MDCK [1] = test: Absorption quotient of the compound across MDCK cells expressing human MDR1; format: ADME, cell-based, Canis lupus familiaris; settings: dog
[2] = test system: Trypanosoma brucei brucei; test: Antitrypanosomal activity against Trypanosoma brucei brucei in nonCNS acute HAT mouse model assessed as cure rate; format: functional
MDR1 (P-gp) = test: Apparent permeability of the compound across MDCK cells expressing human MDR1 in absence of P-gp inhibitor GF120918; format: ADME, cell-based, Canis lupus familiaris; settings: dog
[3] = test system: Trypanosoma brucei brucei; test: Antitrypanosomal activity against Trypanosoma brucei brucei; format: functional, organism-based
[4] = Aqueous solubility of the compound; format: physicochemical; settings: buffer
[5] = Half life in S9 microsomes; format: ADME, subcellular, S9 fraction
L929 = test: Cytotoxicity against mouse L929 cells; format: cell-based
[6] = test system: Trypanosoma brucei brucei; test: Antitrypanosomal activity against Trypanosoma brucei brucei infected in nonCNS acute HAT mouse model assessed as cure rate at 20 mg/kg, po administered after 30 days; format: functional
[7] = test system: Trypanosoma brucei brucei; test: Antitrypanosomal activity against Trypanosoma brucei brucei infected in nonCNS acute HAT mouse model assessed as cure rate at 20 mg/kg, ip administered after 30 days; format: functional; settings: route intraperitoneal
MDCK [8] = test: Permeability of the compound across MDCK cells expressing human MDR1; format: ADME, cell-based, Canis lupus familiaris; settings: dog

Compound | IC50 [3] | half-life [5] | IC50 (L929) | also measured
COc1ccc(F)cc1C(=O)c1cnc(NC2CCN(S(C)(=O)=O)CC2)nc1 | 570 nM | – | – | AQ (MDCK [1]): 0.18; Activity [2]: 66%; Papp (MDR1 (P-gp)): 56.1 ×10⁻⁶ cm/s
COc1ccccc1C(=O)c1cnc(NC2CCN(C(=O)Cc3ccccc3)CC2)nc1N | 340 nM | 32 min | 20 µM | solubility [4]: 6 µM (≈ 2.67 µg/mL)
COc1ccccc1C(=O)c1cnc(NC2CCN(S(=O)(=O)Cc3ccccc3)CC2)nc1N | 370 nM | 8 min | 9.1 µM | solubility [4]: 2 µM (≈ 0.963 µg/mL)
COc1ccccc1C(=O)c1cnc(NC2CCN(C(=O)Nc3ccccc3)CC2)nc1N | 45 nM | 96 min | 7.5 µM | Activity [6]: 100%; solubility [4]: 25 µM (≈ 11.2 µg/mL); Activity [7]: 100%; AQ (MDCK [1]): 0.63; permeability (MDCK [8]): impermeable; Papp (MDR1 (P-gp)): 15.1 ×10⁻⁶ cm/s
COc1ccccc1C(=O)c1cnc(NC2CCN(c3nc4ccccc4[nH]3)CC2)nc1N | 88 nM | 96 min | 7.6 µM | solubility [4]: 13 µM (≈ 5.77 µg/mL)
COc1ccccc1C(=O)c1cnc(NC2CCN(c3nc4ccccc4n3C)CC2)nc1N | 1530 nM | – | > 22 µM | –
COc1ccccc1C(=O)c1cnc(NC2CCN(c3nc4ccccc4s3)CC2)nc1N | 290 nM | 40 min | 15 µM | –
COc1ccccc1C(=O)c1cnc(NC2CCN(c3nccs3)CC2)nc1N | 3100 nM | – | > 24 µM | –
COc1ccccc1C(=O)c1cnc(NC2CCN(C(=O)Nc3ccccc3F)CC2)nc1N | 130 nM | – | 4.1 µM | –
COc1ccccc1C(=O)c1cnc(NC2CCN(C(=O)Nc3cccc(F)c3)CC2)nc1N | 43 nM | 169 min | 9.3 µM | solubility [4]: 13 µM (≈ 6.04 µg/mL)
COc1ccccc1C(=O)c1cnc(NC2CCN(C(=O)Nc3ccc(F)cc3)CC2)nc1N | 65 nM | 152 min | 4.6 µM | solubility [4]: 25 µM (≈ 11.6 µg/mL)
COc1ccccc1C(=O)c1cnc(NC2CCN(C(=O)Nc3ccccc3C)CC2)nc1N | 410 nM | – | 10 µM | –
COc1ccccc1C(=O)c1cnc(NC2CCN(C(=O)Nc3cccc(C)c3)CC2)nc1N | 110 nM | – | 7.1 µM | –
COc1ccccc1C(=O)c1cnc(NC2CCN(C(=O)Nc3ccc(C)cc3)CC2)nc1N | 110 nM | – | 2.9 µM | –
COc1ccccc1NC(=O)N1CCC(Nc2ncc(C(=O)c3ccccc3OC)c(N)n2)CC1 | 190 nM | – | 1.2 µM | –
COc1cccc(NC(=O)N2CCC(Nc3ncc(C(=O)c4ccccc4OC)c(N)n3)CC2)c1 | 290 nM | – | 6.9 µM | –
COc1ccc(NC(=O)N2CCC(Nc3ncc(C(=O)c4ccccc4OC)c(N)n3)CC2)cc1 | 360 nM | – | 3.4 µM | –
COc1ccccc1C(=O)c1cnc(N[C@H]2CC[C@@H](C(=O)Nc3ccccc3)CC2)nc1N | > 11000 nM | – | > 22 µM | –
COc1ccccc1C(=O)c1cnc(N[C@H]2CC[C@H](C(=O)Nc3ccccc3)CC2)nc1N | 4600 nM | – | 4.6 µM | –

Compound | IC50 [3] | half-life [5] | IC50 (L929) | also measured
COc1ccccc1C(=O)c1cnc(NCCCNC(=O)Nc2ccccc2)nc1N | 4500 nM | – | 11 µM | –
COc1ccccc1C(=O)c1cnc(N2CCN(C(=O)Nc3ccccc3)CC2)nc1N | > 12000 nM | – | > 27 µM | –
COc1ccccc1C(=O)c1cnc(NC2CCN(C(=O)Nc3ccccc3)C2)nc1N (stereo not drawn) | 5500 nM | – | 13 µM | –
CS(=O)(=O)N1CCC(Nc2ncc(C(=O)c3ccccc3)c(N)n2)CC1 | 7400 nM | – | – | –
Cc1ccccc1C(=O)c1cnc(NC2CCN(S(C)(=O)=O)CC2)nc1N | 1800 nM | – | – | –
COc1cccc(C(=O)c2cnc(NC3CCN(S(C)(=O)=O)CC3)nc2N)c1 | 10000 nM | – | – | –
COc1ccc(C(=O)c2cnc(NC3CCN(S(C)(=O)=O)CC3)nc2N)cc1 | > 12000 nM | – | – | –
COc1ccc(F)cc1C(=O)c1cnc(NC2CCN(C(=O)Nc3ccccc3)CC2)nc1N | 30 nM | – | – | –
CCc1ccccc1C(=O)c1cnc(NC2CCN(C(=O)Nc3ccccc3)CC2)nc1N | 170 nM | – | – | –
CCOc1ccccc1C(=O)c1cnc(NC2CCN(C(=O)Nc3ccccc3)CC2)nc1N | 260 nM | – | – | –
COc1ccccc1C(=O)c1cnc(NC2CCN(C(=O)Nc3ccccc3)CC2)nc1 | 330 nM | 168 min | – | AQ (MDCK [1]): 0.14; Activity [2]: 33%; Papp (MDR1 (P-gp)): 39.8 ×10⁻⁶ cm/s
COc1ccccc1C(=O)c1cnc(NC2CCN(C(=O)Nc3ccccc3)CC2)nc1C | 1600 nM | 73 min | – | –
COc1ccccc1C(=O)c1cnc(NC2CCN(c3nc4ccccc4[nH]3)CC2)nc1 | 310 nM | 45 min | – | AQ (MDCK [1]): 0.77; Papp (MDR1 (P-gp)): 11.4 ×10⁻⁶ cm/s
COc1ccccc1C(=O)c1cnc(NC2CCN(S(C)(=O)=O)CC2)nc1 | 1800 nM | 223 min | – | –
COc1ccccc1C(=O)c1cnc(NC2CCN(S(C)(=O)=O)CC2)nc1C | > 12000 nM | 434 min | – | –
COc1ccccc1C(=O)c1cnc(NC2CCN(S(C)(=O)=O)CC2)nc1N | 660 nM | > 350 min | 11 µM | Activity [6]: 100%; solubility [4]: 50 µM (≈ 20.3 µg/mL); Activity [7]: 100%; permeability (MDCK [8]): impermeable
COc1ccccc1C(=O)c1cnc(NC2CCN(C(C)=O)CC2)nc1N | 3300 nM | – | > 27 µM | –
COc1ccc(F)cc1C(=O)c1cnc(NC2CCN(S(C)(=O)=O)CC2)nc1N | 170 nM | > 350 min | – | Activity [6]: 100%; Activity [7]: 100%; AQ (MDCK [1]): 0.49; permeability (MDCK [8]): impermeable; Papp (MDR1 (P-gp)): 27.2 ×10⁻⁶ cm/s
COc1ccccc1C(=O)c1cnc(NC2CCNCC2)nc1N | > 14000 nM | – | – | –
